This assay has as its target Cyclin-dependent kinase 5 (Homo sapiens) (UniProt Q00535). Kind of assay: Inhibition of CDK5 (unknown origin) assessed as reduction in histone H1 phosphorylation.

The values below come from ChEMBL document CHEMBL4354874, “Insights into PPARγ Phosphorylation and Its Inhibition Mechanism” (J Med Chem, 2020).

Activity calls are given as the source filed them. The calls are words filed in the database; no cut-off is given here.

Cyclin-dependent kinase 5 (Homo sapiens), sequence (Q00535 whole entry, looked up): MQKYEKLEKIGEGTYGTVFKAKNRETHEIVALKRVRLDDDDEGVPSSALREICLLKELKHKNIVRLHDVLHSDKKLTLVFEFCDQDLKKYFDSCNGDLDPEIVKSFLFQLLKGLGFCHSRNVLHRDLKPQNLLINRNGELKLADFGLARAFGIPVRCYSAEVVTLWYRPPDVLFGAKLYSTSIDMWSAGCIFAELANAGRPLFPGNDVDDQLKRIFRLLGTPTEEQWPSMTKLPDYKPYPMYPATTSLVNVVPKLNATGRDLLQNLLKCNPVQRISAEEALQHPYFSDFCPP

With `O=C(O)[C@H](Cc1ccccc1)Oc1ccc(-c2ccccc2)cc1`, the inhibition entry is “inactive”.
